6 compounds from ChEMBL document CHEMBL1127980, “A convenient synthesis of 2-amino-2-oxazolines and their pharmacological evaluation at cloned human adrenergic receptors” (Bioorg Med Chem Lett, 1994) can be followed below.

Assay [1] has as its target T1, Alpha-2C adrenergic receptor (Homo sapiens, UniProt P18825).
T1 sequence (P18825 whole entry): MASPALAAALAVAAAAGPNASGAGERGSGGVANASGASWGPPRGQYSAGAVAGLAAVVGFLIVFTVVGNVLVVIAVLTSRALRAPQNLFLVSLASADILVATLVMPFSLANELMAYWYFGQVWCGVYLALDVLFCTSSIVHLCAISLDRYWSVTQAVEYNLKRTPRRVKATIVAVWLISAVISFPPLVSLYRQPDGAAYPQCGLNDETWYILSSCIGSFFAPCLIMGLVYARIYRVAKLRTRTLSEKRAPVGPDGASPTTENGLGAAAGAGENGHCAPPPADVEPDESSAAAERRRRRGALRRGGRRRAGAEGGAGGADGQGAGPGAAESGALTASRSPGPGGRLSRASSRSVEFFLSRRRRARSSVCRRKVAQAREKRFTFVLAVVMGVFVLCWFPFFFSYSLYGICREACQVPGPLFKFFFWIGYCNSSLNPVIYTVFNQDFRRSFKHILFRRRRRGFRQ
The assay is described as follows: Binding affinity towards human Alpha-2C adrenergic receptor by the displacement of [3H]rauwolscine.

The target of assay [2] is T2, Alpha-1A adrenergic receptor (Homo sapiens, UniProt P35348).
T2 sequence (P35348 whole entry): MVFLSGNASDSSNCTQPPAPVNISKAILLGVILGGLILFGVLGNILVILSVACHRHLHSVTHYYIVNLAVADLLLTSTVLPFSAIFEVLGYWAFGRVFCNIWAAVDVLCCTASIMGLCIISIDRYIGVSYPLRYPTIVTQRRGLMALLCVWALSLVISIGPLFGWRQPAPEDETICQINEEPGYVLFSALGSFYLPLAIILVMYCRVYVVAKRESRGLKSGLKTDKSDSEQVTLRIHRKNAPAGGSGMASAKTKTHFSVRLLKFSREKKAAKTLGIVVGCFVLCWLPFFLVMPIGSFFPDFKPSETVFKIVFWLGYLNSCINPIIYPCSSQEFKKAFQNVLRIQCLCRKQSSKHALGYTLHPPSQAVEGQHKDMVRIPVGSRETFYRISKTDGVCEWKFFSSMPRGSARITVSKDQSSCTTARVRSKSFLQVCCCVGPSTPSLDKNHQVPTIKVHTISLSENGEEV
The assay is described as follows: Binding affinity towards human Alpha-1C adrenergic receptor by the displacement of [3H]prazosin. (In general: In a radioligand displacement assay an active substance lowers the binding of a labelled ligand.)

Assay [3] addresses T3, Alpha-2B adrenergic receptor (Homo sapiens, UniProt P18089).
T3 sequence (P18089 whole entry): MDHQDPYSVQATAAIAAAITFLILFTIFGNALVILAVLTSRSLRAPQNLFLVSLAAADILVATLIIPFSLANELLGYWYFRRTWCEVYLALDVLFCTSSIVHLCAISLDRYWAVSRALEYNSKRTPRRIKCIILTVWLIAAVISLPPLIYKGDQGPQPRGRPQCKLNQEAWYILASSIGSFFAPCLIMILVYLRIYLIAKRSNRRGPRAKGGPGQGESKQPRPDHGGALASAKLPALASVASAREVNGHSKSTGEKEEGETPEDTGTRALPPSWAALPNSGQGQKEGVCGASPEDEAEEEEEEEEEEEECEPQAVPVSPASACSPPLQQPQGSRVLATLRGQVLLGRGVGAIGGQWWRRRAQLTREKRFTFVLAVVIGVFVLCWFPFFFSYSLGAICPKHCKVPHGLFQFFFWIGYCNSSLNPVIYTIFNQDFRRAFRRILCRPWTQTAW
The assay is described as follows: Agonistic activity towards human Alpha-2B adrenergic receptor was measured as ability to inhibit forskolin-stimulated synthesis of cyclic adenosine monophosphate. It is filed as functional.

Assay [4] addresses T4, Alpha-1D adrenergic receptor (Homo sapiens, UniProt P25100).
T4 sequence (P25100 whole entry): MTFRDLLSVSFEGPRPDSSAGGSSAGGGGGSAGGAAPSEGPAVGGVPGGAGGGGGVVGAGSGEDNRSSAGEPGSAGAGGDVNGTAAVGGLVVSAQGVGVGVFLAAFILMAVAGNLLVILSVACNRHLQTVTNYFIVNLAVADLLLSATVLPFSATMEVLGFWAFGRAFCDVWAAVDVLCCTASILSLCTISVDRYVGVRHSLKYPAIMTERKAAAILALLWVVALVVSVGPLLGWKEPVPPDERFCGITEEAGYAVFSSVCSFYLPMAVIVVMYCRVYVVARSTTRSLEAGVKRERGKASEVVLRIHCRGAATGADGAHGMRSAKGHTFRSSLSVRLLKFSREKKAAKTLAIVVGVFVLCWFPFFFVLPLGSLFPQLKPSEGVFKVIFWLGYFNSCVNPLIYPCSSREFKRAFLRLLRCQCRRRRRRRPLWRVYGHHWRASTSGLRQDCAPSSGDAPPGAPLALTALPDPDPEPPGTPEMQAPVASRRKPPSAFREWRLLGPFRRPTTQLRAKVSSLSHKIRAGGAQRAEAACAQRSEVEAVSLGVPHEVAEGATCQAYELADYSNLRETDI
The assay is described as follows: Binding affinity towards human Alpha-1A adrenergic receptor by the displacement of [3H]prazosin.

For assay [5], the target named is T5, Alpha-2A adrenergic receptor (Homo sapiens, UniProt P08913).
T5 sequence (P08913 whole entry): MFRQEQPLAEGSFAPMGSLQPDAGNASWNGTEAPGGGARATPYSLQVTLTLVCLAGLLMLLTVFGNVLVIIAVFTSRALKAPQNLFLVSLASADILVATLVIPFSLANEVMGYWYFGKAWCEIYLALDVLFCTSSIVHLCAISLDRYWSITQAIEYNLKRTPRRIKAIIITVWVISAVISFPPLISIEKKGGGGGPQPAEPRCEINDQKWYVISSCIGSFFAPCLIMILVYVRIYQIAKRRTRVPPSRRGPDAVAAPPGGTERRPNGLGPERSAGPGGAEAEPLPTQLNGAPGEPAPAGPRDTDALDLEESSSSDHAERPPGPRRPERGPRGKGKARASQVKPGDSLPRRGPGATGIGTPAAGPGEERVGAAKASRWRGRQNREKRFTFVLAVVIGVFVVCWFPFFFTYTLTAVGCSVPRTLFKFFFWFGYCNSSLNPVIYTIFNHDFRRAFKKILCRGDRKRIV
The assay is described as follows: Agonistic activity towards human Alpha-2A adrenergic receptor was measured as ability to inhibit forskolin-stimulated synthesis of cyclic adenosine monophosphate. Type of assay: functional.

Assay [6] addresses T5, Alpha-2A adrenergic receptor. The assay is described as follows: Binding affinity towards human Alpha-2A adrenergic receptor by the displacement of [3H]rauwolscine.
For assay [7], the target named is T1, Alpha-2C adrenergic receptor. The assay is described as follows: Agonistic activity towards human Alpha-2C adrenergic receptor was measured as ability to inhibit forskolin-stimulated synthesis of cyclic adenosine monophosphate. Type of assay: functional.
The target in assay [8] is T3, Alpha-2B adrenergic receptor. The assay is described as follows: Binding affinity towards human Alpha-2B adrenergic receptor by the displacement of [3H]rauwolscine.

Molecules are shown by their SMILES.

By Ki is commonly meant a measure of affinity in units of concentration, obtained from inhibition or displacement. The low end stands for a stronger hold on the target, the high end for a looser hold on the target. Usually EC50 stands for the concentration that produces a half-maximal response. Read a low EC50 as a more potent agent. As to `C1CCCC(NC2=NCCO2)CC1`, the Ki in assay [1] is 33.1 nM; in assay [2], 2000 nM; in assay [4], 3800 nM; in assay [6] it was 5.37 nM; in assay [8] it was 9.77 nM. Moreover, the EC50 in assay [3] was 214 nM; in assay [5], 38 nM; in assay [7], 77.6 nM.

Regarding `c1ccc2c(c1)CCCC2NC1=NCCCO1` (stereo not given), the Ki in assay [1] is 85.1 nM; in assay [2], 1950 nM; in assay [4] it was 2190 nM; in assay [6], 25.7 nM; in assay [8] it was 25.1 nM. Also, the EC50 is 34.7 nM in assay [3], 229 nM in assay [5] and 24.5 nM in assay [7].

With `CCC[C@H]1CCCCC1NC1=NCCO1` (stereo not given in full), the Ki in assay [1] was 24.5 nM; in assay [2] it was 141 nM; in assay [4], 562 nM; in assay [6], 2.95 nM; in assay [8], 5.89 nM. Also, the EC50 was 9.33 nM in assay [3], 1.62 nM in assay [5] and 4.07 nM in assay [7].

With `c1ccc2c(c1)CCCC2NC1=NCCO1` (stereo not given), the Ki in assay [1] was 12 nM; in assay [2], 126 nM; in assay [4], 204 nM; in assay [6], 2.34 nM; in assay [8] it was 2.14 nM. Further, the EC50 in assay [3] is 3.55 nM; in assay [5], 1.17 nM; in assay [7], 2.19 nM.

Consider `C1COC(N2CCOCC2)=N1`, for which the Ki in assay [1] was 16600 nM; in assay [2], 107000 nM; in assay [4], 120000 nM; in assay [6] it was 16600 nM; in assay [8], 11700 nM.

For the compound `C1COC(NC(C2CC2)C2CC2)=N1` [RILMENIDINE], the Ki in assay [1] was 288 nM; in assay [2], 6030 nM; in assay [4], 8910 nM; in assay [6] it was 182 nM; in assay [8], 70.8 nM. In addition, the EC50 in assay [3] is 724 nM; in assay [5], 275 nM; in assay [7], 191 nM.
